The values that follow come from patent publication US9695148B2, “2-pyridone compound” (TAISHO PHARMACEUTICAL CO., LTD., priority 2012, dated 2017).

For experiment [1], the target named is T1, human liver GK (Homo sapiens, UniProt P35557).
T1 construct: GST (glutathione S-transferase) (N); made in house; host or cells: E. coli
T1 sequence (P35557 1-466 isoform P35557-2): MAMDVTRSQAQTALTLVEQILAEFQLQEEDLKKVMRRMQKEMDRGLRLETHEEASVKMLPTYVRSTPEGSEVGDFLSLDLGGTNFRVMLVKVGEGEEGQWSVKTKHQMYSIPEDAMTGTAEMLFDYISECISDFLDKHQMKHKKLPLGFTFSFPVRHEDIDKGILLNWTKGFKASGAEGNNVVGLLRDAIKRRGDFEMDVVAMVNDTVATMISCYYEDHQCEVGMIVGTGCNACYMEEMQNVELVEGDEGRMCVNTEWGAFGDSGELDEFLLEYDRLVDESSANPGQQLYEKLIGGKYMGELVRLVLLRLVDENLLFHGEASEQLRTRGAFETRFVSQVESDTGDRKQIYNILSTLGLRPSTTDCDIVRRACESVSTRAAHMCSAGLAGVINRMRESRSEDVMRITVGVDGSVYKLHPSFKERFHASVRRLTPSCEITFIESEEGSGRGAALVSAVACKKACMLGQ
In words: GK activation test. The conditions noted are these: GST-fused human liver GK, 4 mM glucose, 2 mM ATP, absorbance at 405 nm after 15 minutes; read-out: EC50 (test compound concentration needed to activate 50% of the maximum activation ability). It is filed as biochemical. As for the experimental part:
The GK activation test for the test compounds was carried out by the method of Van Schaftingen et al. (Eur. J. Biochem. 179:179-184, 1989) with partial modifications. The GK activity was measured by the change in the absorbance based on an amount of thio-NADH, which is a reduced form product converted from thio-NAD+ (thionicothinamide-adeninedinucleotide) when dehydrogenating glucose 6-phosphate, produced by GK using glucose as a matrix, with G6PDH (glucose-6-phosphate dehydrogenase).
The enzyme source used in this assay, human liver GK, was expressed in E. coli as a fusion protein with GST (glutathione S-transferase) added to the amino terminus and was purified using Glutathione Sepharose 4B (Amersham Biosciences).
The test was carried out using flat-bottom 96-well half area microplates (Corning). A solution of the test compound in dimethyl sulfoxide (DMSO) at a final concentration of 1% in DMSO and DMSO as a control were added to each well of the plates. Further, 25 mM Hepes-KOH (pH=7.1), 25 mM KCl, 2 mM MgCl2, 2 mM thio-NAD+, 4 mM glucose, 1 mM DTT (dithiothreitol), 0.01 units/μL G6PDH and 2 μg/mL human liver GK were added as the final concentrations, respectively, to each of the wells. Subsequently, ATP was added to each of the wells to give the final concentration of 2 mM, and the reaction was started. The microplates were allowed to stand at room temperature. After 15 minutes from the start of reaction, the absorbance at 405 nm was measured using an absorption spectrometer for microplate.
The GK activity maximally activated by the test compound was taken as the maximum activation ability, and the test compound concentration (nM) needed to activate 50% of that maximum activation ability was expressed as EC50.

In experiment [2] the test system is C57BL6/J mice. As to the kind of experiment: Hypoglycemia test using C57BL6/J mice. It is filed as in vivo. To be noted: oral, ad libitum fed C57BL6/J mice, plasma glucose AUC 0-6 hours vs control group. As for the experimental part: The test to verify the hypoglycemic effect of the test compounds was carried out in accordance with a method commonly used and represented by the method of Grimsby et. al (Science 301: 370-373, 2003).
The body weight of C57BL6/J mice (N=6), who were ad libitum fed before the test, was measured. The test compound was suspended or dissolved in the base to be administered (0.5% methyl cellulose) at a concentration of 0.06 to 20 mg/mL. The mice were orally administered with 5 mL/kg of a drug solution (equivalent to 0.3 to 100 mg/kg of the test compound) or control (only the base to be administered). About 60 μL of blood was collected from the tail vein using a capillary tube immediately before administration of the test compound and 0.5, 1, 2, 4 and 6 hours after administration of the test compound. The collected blood was centrifuged and subsequently measured for the plasma glucose concentration. The area under the curve (AUC) was calculated from changes over time in the plasma glucose concentration after administration of the test compound, and a reduction rate (%) to AUC of the control group was calculated. The dose at which an AUC decreasing percentage was 20% (ED20 value; mg/kg) was calculated from the dose response curve having the AUC reduction rate plotted on the vertical axis and the dose plotted on the horizontal axis.

pEC50: −log10 of the molar value.

In the case of `CC(F)(F)c1ccc([C@@H](C[C@H]2CCC(=O)N2)c2ccc(C3CC3)c(=O)[nH]2)cc1` (single isomer, unassigned) [Compound B], the pEC50 in experiment [1] was 5.88. Moreover, the “ED20 (dose at which the plasma glucose AUC decreasing percentage was 20%)” value in experiment [2] came out at 15.6 mg/kg.

Consider `O=C1CC[C@H](C[C@H](c2ccc(C(F)F)cc2)c2ccc(C3CC3)c(=O)[nH]2)N1` [Compound C], for which the pEC50 in experiment [1] was 6.22. Moreover, the “ED20 (dose at which the plasma glucose AUC decreasing percentage was 20%)” value in experiment [2] turned out to be 32.0 mg/kg.

Turning to `CC(F)(F)c1ccc([C@@H](C[C@H]2CCC(=O)N2)c2ccc(C3CC3)c(=O)[nH]2)cc1` [Compound [1], 3-cyclopropyl-6-{(1R)-1-[4-(1,1-difluoroethyl)phenyl]-2-[(2R)-5-oxopyrrolidin-2-yl]ethyl}pyridin-2(1H)-one], the pEC50 in experiment [1] was 6.53. The “ED20 (dose at which the plasma glucose AUC decreasing percentage was 20%)” value in experiment [2] is 4.2 mg/kg.

For `CCc1ccc([C@@H](C[C@H]2CCC(=O)N2)c2ccc(C3CC3)c(=O)[nH]2)cc1` [Compound A], the pEC50 in experiment [1] is 6.28. Besides, the “ED20 (dose at which the plasma glucose AUC decreasing percentage was 20%)” value in experiment [2] was 11.5 mg/kg.
